Reference: ChEMBL document CHEMBL3817755, “Design, synthesis and biological evaluation of indazolepyrimidine based derivatives as anticancer agents with anti-angiogenic and antiproliferative activities” (Medchemcomm, 2016)

Legend:
Assay type in all cases: functional
CCRF-CEM = assay: Growth inhibition of human CCRF-CEM cells at 10 uM after 48 hrs by SRB assay; settings: read-out: GI
[1] = Growth inhibition of human HL-60(TB) cells at 10 uM after 48 hrs by SRB assay; settings: HL-60, 48 h, read-out: GI
K562 = assay: Growth inhibition of human K562 cells at 10 uM after 48 hrs by SRB assay; settings: K562, 48 h, read-out: GI
[2] = Growth inhibition of human MOLT4 cells at 10 uM after 48 hrs by SRB assay; settings: MOLT-4, 48 h, read-out: GI
[3] = Growth inhibition of human RPMI8226 cells at 10 uM after 48 hrs by SRB assay; settings: RPMI-8226, 48 h, read-out: GI
SR = assay: Growth inhibition of human SR cells at 10 uM after 48 hrs by SRB assay; settings: read-out: GI
A549 = assay: Growth inhibition of human A549/ATCC cells at 10 uM after 48 hrs by SRB assay; settings: A549, 48 h, read-out: GI
EKVX = assay: Growth inhibition of human EKVX cells at 10 uM after 48 hrs by SRB assay; settings: read-out: GI
[4] = Growth inhibition of human HOP62 cells at 10 uM after 48 hrs by SRB assay; settings: HOP-62, 48 h, read-out: GI
NCI-H23 = assay: Growth inhibition of human NCI-H23 cells at 10 uM after 48 hrs by SRB assay; settings: NCI-H23, 48 h, read-out: GI
NCI-H322M = assay: Growth inhibition of human NCI-H322M cells at 10 uM after 48 hrs by SRB assay; settings: read-out: GI
NCI-H460 = assay: Growth inhibition of human NCI-H460 cells at 10 uM after 48 hrs by SRB assay; settings: NCI-H460, 48 h, read-out: GI
[5] = Growth inhibition of human HCC2998 cells at 10 uM after 48 hrs by SRB assay; settings: HCC 2998, 48 h, read-out: GI
[6] = Growth inhibition of human HCT15 cells at 10 uM after 48 hrs by SRB assay; settings: HCT-15, 48 h, read-out: GI
KM12 = assay: Growth inhibition of human KM12 cells at 10 uM after 48 hrs by SRB assay; settings: KM12, 48 h, read-out: GI
[7] = Growth inhibition of human SF539 cells at 10 uM after 48 hrs by SRB assay; settings: SF-539, 48 h, read-out: GI
[8] = Growth inhibition of human SNB19 cells at 10 uM after 48 hrs by SRB assay; settings: SNB-19, 48 h, read-out: GI
[9] = Growth inhibition of human SNB75 cells at 10 uM after 48 hrs by SRB assay; settings: SNB-75, 48 h, read-out: GI
Malme-3M = assay: Growth inhibition of human MALME-3M cells at 10 uM after 48 hrs by SRB assay; settings: read-out: GI
M14 = assay: Growth inhibition of human M14 cells at 10 uM after 48 hrs by SRB assay; settings: M14, 48 h, read-out: GI
MDA-MB-435 = assay: Growth inhibition of human MDA-MB-435 cells at 10 uM after 48 hrs by SRB assay; settings: MDA-MB-435, 48 h, read-out: GI
SK-MEL-2 = assay: Growth inhibition of human SK-MEL-2 cells at 10 uM after 48 hrs by SRB assay; settings: SK-MEL-2, 48 h, read-out: GI
SK-MEL-28 = assay: Growth inhibition of human SK-MEL-28 cells at 10 uM after 48 hrs by SRB assay; settings: SK-MEL-28, 48 h, read-out: GI
SK-MEL-5 = assay: Growth inhibition of human SK-MEL-5 cells at 10 uM after 48 hrs by SRB assay; settings: SK-MEL-5, 48 h, read-out: GI
[10] = Growth inhibition of human UACC257 cells at 10 uM after 48 hrs by SRB assay; settings: UACC-257, 48 h, read-out: GI
[11] = Growth inhibition of human UACC62 cells at 10 uM after 48 hrs by SRB assay; settings: UACC-62, 48 h, read-out: GI
[12] = Growth inhibition of human IGROV1 cells at 10 uM after 48 hrs by SRB assay; settings: IGROV-1, 48 h, read-out: GI
[13] = Growth inhibition of human OVCAR4 cells at 10 uM after 48 hrs by SRB assay; settings: OVCAR-4, 48 h, read-out: GI
[14] = Growth inhibition of human OVCAR8 cells at 10 uM after 48 hrs by SRB assay; settings: OVCAR-8, 48 h, read-out: GI
[15] = Growth inhibition of human NCI-ADR-RES cells at 10 uM after 48 hrs by SRB assay; settings: read-out: GI
786-0 = assay: Growth inhibition of human 786-0 cells at 10 uM after 48 hrs by SRB assay; settings: 786-0, 48 h, read-out: GI
A498 = assay: Growth inhibition of human A498 cells at 10 uM after 48 hrs by SRB assay; settings: A498, 48 h, read-out: GI
ACHN = assay: Growth inhibition of human ACHN cells at 10 uM after 48 hrs by SRB assay; settings: read-out: GI
[16] = Growth inhibition of human Caki1 cells at 10 uM after 48 hrs by SRB assay; settings: CAKI-1, 48 h, read-out: GI
[17] = Growth inhibition of human RXF393 cells at 10 uM after 48 hrs by SRB assay; settings: RXF 393, 48 h, read-out: GI
SN12C = assay: Growth inhibition of human SN12C cells at 10 uM after 48 hrs by SRB assay; settings: read-out: GI
[18] = Growth inhibition of human UO31 cells at 10 uM after 48 hrs by SRB assay; settings: UO-31, 48 h, read-out: GI
[19] = Growth inhibition of human PC3 cells at 10 uM after 48 hrs by SRB assay; settings: PC-3, 48 h, read-out: GI
[20] = Growth inhibition of human DU145 cells at 10 uM after 48 hrs by SRB assay; settings: DU-145, 48 h, read-out: GI
MCF7 = assay: Growth inhibition of human MCF7 cells at 10 uM after 48 hrs by SRB assay; settings: MCF7, 48 h, read-out: GI
MDA-MB-231 = assay: Growth inhibition of human MDA-MB-231 cells at 10 uM after 48 hrs by SRB assay; settings: MDA-MB-231, 48 h, read-out: GI
T47D = assay: Growth inhibition of human T47D cells at 10 uM after 48 hrs by SRB assay; settings: read-out: GI
MDA-MB-468 = assay: Growth inhibition of human MDA-MB-468 cells at 10 uM after 48 hrs by SRB assay; settings: MDA-MB-468, 48 h, read-out: GI

## COc1ccc(Nc2nccc(Nc3ccc4[nH]ncc4c3)n2)cc1
CCRF-CEM
  inhibition of growth at 10 µM: 102%
[1]
  inhibition of growth at 10 µM: 40%
K562
  inhibition of growth at 10 µM: 95%
[2]
  inhibition of growth at 10 µM: 99%
[3]
  inhibition of growth at 10 µM: 97%
SR
  inhibition of growth at 10 µM: 96%
A549
  inhibition of growth at 10 µM: 76%
EKVX
  inhibition of growth at 10 µM: 49%
[4]
  inhibition of growth at 10 µM: 51%
NCI-H23
  inhibition of growth at 10 µM: 60%
NCI-H322M
  inhibition of growth at 10 µM: 37%
NCI-H460
  inhibition of growth at 10 µM: 75%
[5]
  inhibition of growth at 10 µM: 37%
[6]
  inhibition of growth at 10 µM: 94%
KM12
  inhibition of growth at 10 µM: 90%
[7]
  inhibition of growth at 10 µM: 31%
[8]
  inhibition of growth at 10 µM: 40%
[9]
  inhibition of growth at 10 µM: 34%
Malme-3M
  inhibition of growth at 10 µM: 24%
M14
  inhibition of growth at 10 µM: 67%
MDA-MB-435
  inhibition of growth at 10 µM: 65%
SK-MEL-2
  inhibition of growth at 10 µM: 70%
SK-MEL-28
  inhibition of growth at 10 µM: 34%
SK-MEL-5
  inhibition of growth at 10 µM: 98%
[10]
  inhibition of growth at 10 µM: 54%
[11]
  inhibition of growth at 10 µM: 61%
[12]
  inhibition of growth at 10 µM: 49%
[13]
  inhibition of growth at 10 µM: 67%
[14]
  inhibition of growth at 10 µM: 91%
[15]
  inhibition of growth at 10 µM: 82%
786-0
  inhibition of growth at 10 µM: 56%
A498
  inhibition of growth at 10 µM: 63%
ACHN
  inhibition of growth at 10 µM: 71%
[16]
  inhibition of growth at 10 µM: 62%
[17]
  inhibition of growth at 10 µM: 68%
SN12C
  inhibition of growth at 10 µM: 57%
[18]
  inhibition of growth at 10 µM: 84%
[19]
  inhibition of growth at 10 µM: 87%
[20]
  inhibition of growth at 10 µM: 68%
MCF7
  inhibition of growth at 10 µM: 87%
MDA-MB-231
  inhibition of growth at 10 µM: 51%
T47D
  inhibition of growth at 10 µM: 104%
MDA-MB-468
  inhibition of growth at 10 µM: 56%
